Reference: patent publication US8609710B2, “Cycloalkyl-substituted imidazole derivative” (Daiichi Sankyo Company, Limited, priority 2010, dated 2013)
Counter-ions that a name gives are not always drawn.

Columns and labels:
TAFIa = TAFIa (Homo sapiens (Human), UniProt Q96IY4); test: Determination of TAFIa enzyme inhibitory activity; format: biochemical; conditions: substrate furylacryloyl-alanyl-lysine (FAAK), absorbance at 330 nm
Method: HEPES buffered saline (20 mM HEPES, 150 mM NaCl, pH 7.4; hereinafter, referred to as HBS) was used in the preparation of a reaction solution. To 12 μL of a 250 μg/mL TAFI solution, 30 μL of an HBS solution containing 4 U/mL human thrombin, 12 U/mL rabbit lung thrombomodulin, and 12 mM CaCl2 was added, and the mixture was gently stirred. Then, TAFI was activated at room temperature. Ten minutes later, thrombin was neutralized by the addition of 10 μL of 100 μM PPACK (thrombin inhibitor) to terminate the activation of TAFI. The formed TAFIa was stored in ice and diluted immediately before use in determination with 2050 μL of an HBS solution containing BSA (bovine serum albumin) adjusted to 0.1% in terms of the final concentration.
A test substance was dissolved in HBS to prepare a 10-fold dilution series of evaluation concentrations. 80 μl, of the TAFIa solution and 10 μL of the test substance were added to each well of a 96-well plate and mixed by shaking for 10 minutes. 10 μL, of furylacryloyl-alanyl-lysine (FAAK) adjusted to 5 mg/mL was added to each well, and the change in the absorbance of this mixed solution at 330 nm was read for 30 minutes to determine the degradation rate of the substrate.
The degradation rate of the substrate in each well was applied to a standard curve prepared using the dilution series of the TAFIa solution to calculate TAFIa activity. The 50% inhibitory concentration (IC50) was calculated based on the correlation between the concentration of the test compound and the TAFIa activity. Compound A (compound of Example 7 in the pamphlet of International Publication No. WO 2002/014285) was used as a control.

[1] = tested on: iron chloride-induced thrombus models; conditions: mice, intravenous administration; cited from earlier work
normal human plasma = test: Fibrinolysis enhancing activity by measurement of time of plasma clot lysis; format: biochemical; conditions: normal human plasma with tPA; concentration that achieves 50% of 1/2 LT
Method: To a 96-well plate, 20 μL/well HBS, 50 μL/well normal human plasma, 10 μL/well compound solution (the compound solution was prepared by dissolving the compound in HBS, followed by serial dilution with this buffer), and 10 μL/well tPA (Activacin (Kyowa Hakko Kirin Co., Ltd.) was adjusted to 600,000 U/mL with a lysis solution included therein, followed by dilution with HBS) were added, and the mixture was stirred. Then, 10 μL/well reaction solution A (13.8 U/mL human thrombin, 170 mM CaCl2, and 0.9 U/mL thrombomodulin) was added thereto, and the mixture was stirred again. The absorbance at 405 nm was measured using a plate reader at 30-second intervals, with the temperature kept at 37° C. to measure the extent of coagulation. […] A concentration that achieves 50% of 1/2 LT was calculated as EC50 from the relationship between the concentration of the test substance and 1/2 LT. Compound A (compound of Example 7 in the pamphlet of International Publication No. WO 2002/014285) was used as a control.

TAFIa, sequence (Q96IY4 115-423): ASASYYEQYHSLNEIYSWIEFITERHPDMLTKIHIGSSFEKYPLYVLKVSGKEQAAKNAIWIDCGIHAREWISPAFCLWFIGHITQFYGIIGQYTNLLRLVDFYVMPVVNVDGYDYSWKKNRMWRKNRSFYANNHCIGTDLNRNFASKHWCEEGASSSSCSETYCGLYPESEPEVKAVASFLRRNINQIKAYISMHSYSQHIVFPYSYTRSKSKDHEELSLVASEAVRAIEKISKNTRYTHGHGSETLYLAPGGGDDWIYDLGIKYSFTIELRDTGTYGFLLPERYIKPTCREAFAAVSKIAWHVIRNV

| Molecule | IC50 (TAFIa) | other results |
| --- | --- | --- |
| CC1CC(n2cnc(CC(CCCN)C(=O)O)c2)C1 (stereo not shown) [Example 5, 5-Amino-2-{[1-(3-methylcyclobutyl)-1H-imidazol-4-yl]methyl}valeric acid] | 36 nM | – |
| C[C@@H](CN)C[C@@H](Cc1cn([C@H]2CC[C@H](C)CC2)cn1)C(=O)O [35(2S,4R form), (2S,4R)-5-Amino-4-methyl-2-{[1-(trans-4-methylcyclohexyl)-1H-imidazol-4-yl]methyl}valeric acid] | 5.1 nM | – |
| C[C@H]1CC[C@H](n2cnc(CC(C(=O)O)N3CC[C@H](N)C3)c2)CC1 (stereo partly drawn) [Example 26, 2-[(3S)-3-Aminopyrrolidin-1-yl]-3-[1-(trans-4-methylcyclohexyl)-1H-imidazol-4-yl]propionic acid] | 21 nM | – |
| NCCCC(Cc1cn([C@H]2CC[C@H](Oc3ccncc3)CC2)cn1)C(=O)O (stereo partly drawn) [Example 38, 5-Amino-2-({1-[trans-4-(pyridin-4-yloxy)cyclohexyl]-1H-imidazol-4-yl}methyl)valeric acid hydrochloride] | 9.8 nM | – |
| C[C@H](CN)C[C@@H](Cc1cn([C@H]2CC[C@H](C)CC2)cn1)C(=O)O [34(2S,4S form), (2S,4S)-5-Amino-4-methyl-2-{[1-(trans-4-methylcyclohexyl)-1H-imidazol-4-yl]methyl}valeric acid] | 5.4 nM | – |
| potato carboxypeptidase inhibitor (PCI): TAFIa-inhibiting polypeptide consisting of 39 amino acids (QQHADPICNKPCKTHDDCSGAWFCQACWNSARTCGPYVG; UniProt P01075 1-39, looked up) | – | antithrombotic effect [1]: antithrombotic effect |
| NCCCC(Cc1cn(C2C3CC4CC(C3)CC2C4)cn1)C(=O)O (stereo not shown) [Example 13, 2-[(1-Adamantan-2-yl-1H-imidazol-4-yl)methyl]-5-aminovaleric acid] | 12 nM | – |
| C[C@@H](CN)C[C@H](Cc1cn([C@H]2CC[C@H](C)CC2)cn1)C(=O)O [35(2R,4R form), (2R,4R)-5-Amino-4-methyl-2-{[1-(trans-4-methylcyclohexyl)-1H-imidazol-4-yl]methyl}valeric acid] | > 100 nM | – |
| CCC(CN)CC(Cc1cn([C@H]2CC[C@H](C)CC2)cn1)C(=O)O (stereo partly drawn) [Example 36, 4-(Aminomethyl)-2-{[1-(trans-4-methylcyclohexyl)-1H-imidazol-4-yl]methyl}hexanoic acid hydrochloride] | 10 nM | – |
| NCCCC(Cc1cn([C@H]2CC[C@H](O)CC2)cn1)C(=O)O (stereo partly drawn) [Example 7, 5-Amino-2-{[1-(trans-4-hydroxycyclohexyl)-1H-imidazol-4-yl]methyl}valeric acid] | 26 nM | – |
| C[C@H]1CC[C@H](n2cnc(C[C@H](CCCN)C(=O)O)c2)CC1 [Example 40, (2S)-5-Amino-2-{[1-(trans-4-methylcyclohexyl)-1H-imidazol-4-yl]methyl}valeric acid p-toluenesulfonate anhydrate] | 2.6 nM | – |
| C[C@H]1CC[C@@H](n2cnc(CC(CCCN)C(=O)O)c2)CC1 (stereo partly drawn) [Example 39, 5-Amino-2-{[1-(cis-4-methylcyclohexyl)-1H-imidazol-4-yl]methyl}valeric acid] | 9.3 nM | – |
| NCCCC(Cc1cn([C@@H]2C[C@H]3C[C@H]3C2)cn1)C(=O)O (mixture of isomers) [Example 6, (2RS)-5-Amino-2-({1-[(1R,3s,5S)-bicyclo[3.1.0]hexan-3-yl]-1H-imidazol-4-yl}methyl)valeric acid] | 21 nM | – |
| NCCCC(Cc1cn([C@H]2CC[C@H](Oc3ccccc3)CC2)cn1)C(=O)O (stereo partly drawn) [Example 14, 5-Amino-2-{[1-(trans-4-phenoxycyclohexyl)-1H-imidazol-4-yl]methyl}valeric acid] | 13 nM | – |
| C[C@H](CN)C[C@H](Cc1cn([C@H]2CC[C@H](C)CC2)cn1)C(=O)O [34(2R,4S form), (2R,4S)-5-Amino-4-methyl-2-{[1-(trans-4-methylcyclohexyl)-1H-imidazol-4-yl]methyl}valeric acid] | 34 nM | – |
| C[C@H]1CC[C@H](n2cnc(CC(CCCN)C(=O)O)c2)CC1 (stereo partly drawn) [Example 2, 5-Amino-2-{[1-(trans-4-methylcyclohexyl)-1H-imidazol-4-yl]methyl}valeric acid] | 8.3 nM | – |
| C[C@H]1CC[C@H](n2cnc(C[C@@H](CCCN)C(=O)O)c2)CC1 [15(2R form), (2R)-5-Amino-2-{[1-(trans-4-methylcyclohexyl)-1H-imidazol-4-yl]methyl}valeric acid] | > 100 nM | – |
| CCC1CC(n2cnc(CC(CCCN)C(=O)O)c2)C1 (stereo not shown) [Example 4, 5-Amino-2-{[1-(3-ethylcyclobutyl)-1H-imidazol-4-yl]methyl}valeric acid] | 14 nM | – |
| C[C@H]1CC[C@H](n2cnc(CC(OCCN)C(=O)O)c2)CC1 (stereo partly drawn) [Example 24, 2-(2-Aminoethoxy)-3-[1-(trans-4-methylcyclohexyl)-1H-imidazol-4-yl]propionic acid] | 8.1 nM | – |
| NCCCC(Cc1cn(C2CCCCCC2)cn1)C(=O)O (stereo not shown) [Example 10, 5-Amino-2-[(1-cycloheptyl-1H-imidazol-4-yl)methyl]valeric acid] | 21 nM | – |
| C[C@H]1CC[C@H](n2cnc(C[C@H](CCCN)C(=O)O)c2)CC1 [15(2S form), (2S)-5-Amino-2-{[1-(trans-4-methylcyclohexyl)-1H-imidazol-4-yl]methyl}valeric acid] | 7.8 nM | EC50 (normal human plasma): 12 nM |
| CC1(C)CCCC(n2cnc(CC(CCCN)C(=O)O)c2)C1 (stereo not shown) [Example 33, 5-Amino-2-{[1-(3,3-dimethylcyclohexyl)-1H-imidazol-4-yl]methyl}valeric acid] | 7.5 nM | – |
| NCCCC(Cc1cn(C2CCCCC2)cn1)C(=O)O (stereo not shown) [Example 1, 5-Amino-2-[(1-cyclohexyl-1H-imidazol-4-yl)methyl]valeric acid] | 21 nM | – |
| NCCCC(Cc1cn([C@H]2CC3CCC2C3)cn1)C(=O)O (stereo partly drawn) [Example 12, 5-Amino-2-([1-[endo-bicyclo[2.2.1]hept-2-yl]-1H-imidazol-4-yl]methyl)valeric acid] | 25 nM | – |
| CC1(O)CCC(n2cnc(CC(CCCN)C(=O)O)c2)CC1 (stereo not shown) [Example 8, 5-Amino-2-{[1-(4-hydroxy-4-methylcyclohexyl)-1H-imidazol-4-yl]methyl}valeric acid] | 19 nM | – |
| NCCCC(Cc1cn([C@@H]2CC3CCC2C3)cn1)C(=O)O (stereo partly drawn) [Example 11, 5-Amino-2-({1-[exo-bicyclo[2.2.1]hept-2-yl]-1H-imidazol-4-yl}methyl)valeric acid] | 14 nM | – |
| CC1CCCC(n2cnc(CC(CCCN)C(=O)O)c2)C1 (stereo not shown) [Example 9, 5-Amino-2-{[1-(3-methylcyclohexyl)-1H-imidazol-4-yl]methyl}valeric acid] | 18 nM | – |
| C[C@H](CN)OC(Cc1cn([C@H]2CC[C@H](C)CC2)cn1)C(=O)O (stereo partly drawn) [Example 25, 2-[(1R)-2-Amino-1-methylethoxy]-3-[1-(trans-4-methylcyclohexyl)-1H-imidazol-4-yl]propionic acid] | 7 nM | – |
| NCCCC(Cc1cn([C@H]2CC[C@@H](O)CC2)cn1)C(=O)O (stereo partly drawn) [Example 37, 5-Amino-2-{[1-(cis-4-hydroxycyclohexyl)-1H-imidazol-4-yl]methyl}valeric acid] | 19 nM | – |
| CC[C@H]1CC[C@H](n2cnc(CC(CCCN)C(=O)O)c2)CC1 (stereo partly drawn) [Example 3, 5-Amino-2-{[1-(trans-4-ethylcyclohexyl)-1H-imidazol-4-yl]methyl}valeric acid] | 8.8 nM | – |
